# Data taken from PMC8372318, “Automated affinity selection for rapid discovery of peptide binders” (Chemical Science, 2021).
# Square brackets hold non-standard residues; d marks the D form. Ends that are not written are not given here. Peptide text beside a SMILES is read from it. * marks the point of attachment. Biotin = O=C1N[C@H]2[C@H](CS[C@H]2CCCCC(=O)*)N1; Phe(4-CH2NH2) = NCc1ccc(C[C@H](N)C(=O)O)cc1; Arg(Me2s) = CN=C(NC)NCCC[C@H](N)C(=O)O; hArg = N=C(N)NCCCC[C@H](N)C(=O)O; Cha = N[C@@H](CC1CCCCC1)C(=O)O; Lys(Me) = CNCCCC[C@H](N)C(=O)O; Cba = N[C@@H](CC1CCC1)C(=O)O; PEG4 = NCCOCCOCCOCCOCCC(=O)O; Pip = O=C(O)[C@@H]1CCCCN1; Dab = NCC[C@H](N)C(=O)O
# T1: tMBM3 (truncated MLL menin binding motif) (Homo sapiens, also: additional C-terminal Arg)
# T1 chain: RFPARPR
# T2: recombinant menin protein (Homo sapiens, UniProt O00255)
# T2 sequence (O00255 1-610): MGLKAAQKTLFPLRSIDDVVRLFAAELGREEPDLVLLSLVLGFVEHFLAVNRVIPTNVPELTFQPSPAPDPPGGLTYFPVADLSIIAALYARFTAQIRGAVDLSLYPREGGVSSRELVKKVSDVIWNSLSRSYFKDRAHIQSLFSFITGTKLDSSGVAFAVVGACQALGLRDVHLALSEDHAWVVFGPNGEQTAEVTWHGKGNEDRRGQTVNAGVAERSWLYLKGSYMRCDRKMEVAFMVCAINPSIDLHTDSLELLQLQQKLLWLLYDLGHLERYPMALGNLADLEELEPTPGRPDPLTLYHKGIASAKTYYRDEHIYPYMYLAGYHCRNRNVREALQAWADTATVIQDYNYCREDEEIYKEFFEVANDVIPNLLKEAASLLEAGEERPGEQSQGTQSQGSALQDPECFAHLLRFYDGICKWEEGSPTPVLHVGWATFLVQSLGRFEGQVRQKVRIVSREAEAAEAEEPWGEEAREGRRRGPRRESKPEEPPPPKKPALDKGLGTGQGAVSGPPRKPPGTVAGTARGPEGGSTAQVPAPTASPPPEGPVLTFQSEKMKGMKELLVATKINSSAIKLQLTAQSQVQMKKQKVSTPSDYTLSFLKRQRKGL
# Biological target: T1, tMBM3 (truncated MLL menin binding …)
# Experiment: BLI
# Details: not given
row,Kd [nM],Molecule
1,> 3800,menin (protein) MGLKAAQKTLFPLRSIDDVVRLFAAELGREEPDLVLLSLVLGFVEHFLAVNRVIPTNVPELTFQPSPAPDPPGGLTYFPVADLSIIAALYARFTAQIRGAVDLSLYPREGGVSSRELVKKVSDVIWNSLSRSYFKDRAHIQSLFSFITGTKLDSSGVAFAVVGACQALGLRDVHLALSEDHAWVVFGPNGEQTAEVTWHGKGNEDRRGQTVNAGVAERSWLYLKGSYMRCDRKMEVAFMVCAINPSIDLHTDSLELLQLQQKLLWLLYDLGHLERYPMALGNLADLEELEPTPGRPDPLTLYHKGIASAKTYYRDEHIYPYMYLAGYHCRNRNVREALQAWADTATVIQDYNYCREDEEIYKEFFEVANDVIPNLLKEAASLLEAGEERPGEQSQGTQSQGSALQDPECFAHLLRFYDGICKWEEGSPTPVLHVGWATFLVQSLGRFEGQVRQKVRIVSREAEAAEAEEPWGEEAREGRRRGPRRESKPEEPPPPKKPALDKGLGTGQGAVSGPPRKPPGTVAGTARGPEGGSTAQVPAPTASPPPEGPVLTFQSEKMKGMKELLVATKINSSAIKLQLTAQSQVQMKKQKVSTPSDYTLSFLKRQRKGL

# Biological target: human ACE2 (Homo sapiens, UniProt Q9BYF1)
# Experiment: not given
# Type: binding
# Details: highest tested peptide concentration 1000 nM; also biosensor alone
# Chain of human ACE2 (Q9BYF1 18-805): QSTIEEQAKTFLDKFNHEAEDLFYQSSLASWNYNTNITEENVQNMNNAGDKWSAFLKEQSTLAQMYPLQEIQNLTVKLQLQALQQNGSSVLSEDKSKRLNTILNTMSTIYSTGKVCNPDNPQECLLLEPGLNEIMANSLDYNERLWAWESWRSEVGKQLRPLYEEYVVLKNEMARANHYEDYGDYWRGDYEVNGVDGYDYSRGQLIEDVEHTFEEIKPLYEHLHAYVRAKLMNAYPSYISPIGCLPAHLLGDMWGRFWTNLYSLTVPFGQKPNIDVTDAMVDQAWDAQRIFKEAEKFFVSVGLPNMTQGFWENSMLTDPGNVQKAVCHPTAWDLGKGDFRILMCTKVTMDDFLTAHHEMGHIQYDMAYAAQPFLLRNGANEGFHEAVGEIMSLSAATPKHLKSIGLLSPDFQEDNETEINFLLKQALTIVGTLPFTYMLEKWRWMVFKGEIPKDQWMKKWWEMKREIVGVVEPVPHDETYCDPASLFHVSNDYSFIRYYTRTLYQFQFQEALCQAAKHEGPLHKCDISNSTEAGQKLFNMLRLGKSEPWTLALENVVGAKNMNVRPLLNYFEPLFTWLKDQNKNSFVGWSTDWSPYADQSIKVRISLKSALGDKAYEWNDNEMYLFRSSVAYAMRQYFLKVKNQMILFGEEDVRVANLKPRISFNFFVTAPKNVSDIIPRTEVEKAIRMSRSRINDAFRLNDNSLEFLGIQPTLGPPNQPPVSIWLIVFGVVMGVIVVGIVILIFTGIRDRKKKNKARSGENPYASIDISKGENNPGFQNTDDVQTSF
row,Molecule,capture by control protein
1,YPYDVPDYAK [HA tag],not captured

# Biological target: T2, recombinant menin protein
# Experiment: Bio-layer interferometry peptide-binding validation (Octet RED96)
# Details: not given
Molecule,Kd [nM],"KD (nM), apparent dissociation constant [nM]"
C[C@H](NC(=O)[C@@H]1CCCN1C(=O)[C@H](Cc1ccccc1)NC(=O)[C@H](CCCNC(=N)N)NC(=O)[C@H](Cc1c[nH]c2ccccc12)NC(=O)CCOCCOCCOCCOCCNC(=O)CCCC[C@@H]1SC[C@@H]2NC(=O)N[C@@H]21)C(=O)N[C@@H](CCCNC(=N)N)C(=O)N1CCC[C@H]1C(=O)N[C@@H](CCCNC(=N)N)C(N)=O [tMBM2] ({Biotin-PEG4}-WRFPARPR-NH2),67,
C[C@H](NC(=O)[C@@H]1CCCN1C(=O)[C@H](Cc1ccccc1)NC(=O)[C@H](CCCNC(=N)N)NC(=O)[C@H](Cc1c[nH]c2ccccc12)NC(=O)[C@@H](N)CCCNC(=N)N)C(=O)N[C@@H](CCCNC(=N)N)C(=O)N1CCC[C@H]1C(=O)N[C@@H](CCCNC(=N)N)C(N)=O [tMBM1] (H-RWRFPARPR-NH2),14,
CC(C)[C@H](NC(=O)[C@@H]1CCCCN1C(=O)[C@H](CC1CCC1)NC(=O)[C@H](CCCNC(=N)N)NC(=O)CCOCCOCCOCCOCCNC(=O)CCCC[C@@H]1SC[C@@H]2NC(=O)N[C@@H]21)C(=O)N[C@@H](CCCNC(=N)N)C(=O)N1CCCC[C@H]1C(=O)N[C@@H](CCCNC(=N)N)C(N)=O [hit 1] ({Biotin-PEG4}-R[Cba][Pip]VR[Pip]R-NH2),34,
CC(C)[C@H](NC(=O)[C@@H]1CCCCN1C(=O)[C@H](CC1CCCCC1)NC(=O)[C@H](CCCNC(=N)N)NC(=O)CCOCCOCCOCCOCCNC(=O)CCCC[C@@H]1SC[C@@H]2NC(=O)N[C@@H]21)C(=O)N[C@@H](CCCNC(=N)N)C(=O)N1CCCC[C@H]1C(=O)N[C@@H](CCCNC(=N)N)C(N)=O [hit 6] ({Biotin-PEG4}-R[Cha][Pip]VR[Pip]R-NH2),40,
C[C@H](NC(=O)[C@@H]1CCCN1C(=O)[C@H](Cc1ccccc1)NC(=O)[C@H](CCCNC(=N)N)NC(=O)CCOCCOCCOCCOCCNC(=O)CCCC[C@@H]1SC[C@@H]2NC(=O)N[C@@H]21)C(=O)N[C@@H](CCCNC(=N)N)C(=O)N1CCC[C@H]1C(=O)N[C@@H](CCCNC(=N)N)C(N)=O [tMBM3] ({Biotin-PEG4}-RFPARPR-NH2),> 3800,3800

# Other lines, results leading:
Kd [nM],"KD (nM), apparent dissociation constant [nM]",Molecule
45,,CC(C)[C@H](NC(=O)[C@@H]1CCCCN1C(=O)[C@H](CC1CCCCC1)NC(=O)[C@H](CCN)NC(=O)CCOCCOCCOCCOCCNC(=O)CCCC[C@@H]1SC[C@@H]2NC(=O)N[C@@H]21)C(=O)N[C@@H](CCCNC(=N)N)C(=O)N1CCCC[C@H]1C(=O)N[C@@H](Cc1ccc(CN)cc1)C(N)=O [hit 6-2] ({Biotin-PEG4}-[Dab][Cha][Pip]VR[Pip][Phe(4-CH2NH2)]-NH2)
87,,CNCCCC[C@H](NC(=O)[C@@H](NC(=O)[C@@H]1CCCCN1C(=O)[C@H](CC1CCCCC1)NC(=O)[C@H](CCCCN)NC(=O)CCOCCOCCOCCOCCNC(=O)CCCC[C@@H]1SC[C@@H]2NC(=O)N[C@@H]21)C(C)C)C(=O)N1CCCC[C@H]1C(=O)N[C@@H](CCCNC(=N)N)C(N)=O [hit 6-4] ({Biotin-PEG4}-K[Cha][Pip]V[Lys(Me)][Pip]R-NH2)
30,,"C[C@H](NC(=O)[C@@H]1CCCN1C(=O)[C@H](Cc1ccccc1)NC(=O)[C@H](CCCNC(=N)N)NC(=O)[C@H](Cc1c[nH]c2ccccc12)NC(=O)[C@@H](N)CCCNC(=N)N)C(=O)N[C@@H](CCCNC(=N)N)C(=O)N1CCC[C@H]1C(N)=O [MBM1, reference compound] (H-RWRFPARP-NH2)"
110,,CNCCCC[C@H](NC(=O)[C@@H](NC(=O)[C@@H]1CCCCN1C(=O)[C@H](CC1CCCCC1)NC(=O)[C@H](Cc1c[nH]cn1)NC(=O)CCOCCOCCOCCOCCNC(=O)CCCC[C@@H]1SC[C@@H]2NC(=O)N[C@@H]21)C(C)C)C(=O)N1CCCC[C@H]1C(=O)N[C@@H](CCCNC(=N)N)C(N)=O [hit 6-5] ({Biotin-PEG4}-H[Cha][Pip]V[Lys(Me)][Pip]R-NH2)
20,,CN=C(NC)NCCC[C@H](NC(=O)[C@@H](NC(=O)[C@@H]1CCCCN1C(=O)[C@H](CC1CCCCC1)NC(=O)[C@H](CCCCN)NC(=O)CCOCCOCCOCCOCCNC(=O)CCCC[C@@H]1SC[C@@H]2NC(=O)N[C@@H]21)C(C)C)C(=O)N1CCCC[C@H]1C(=O)N[C@@H](CCCNC(=N)N)C(N)=O [hit 6-1] ({Biotin-PEG4}-K[Cha][Pip]V[Arg(Me2s)][Pip]R-NH2)
34,,CC(C)[C@H](NC(=O)[C@@H]1CCCCN1C(=O)[C@H](CC1CCCCC1)NC(=O)[C@H](CCN)NC(=O)CCOCCOCCOCCOCCNC(=O)CCCC[C@@H]1SC[C@@H]2NC(=O)N[C@@H]21)C(=O)N[C@@H](CCCCNC(=N)N)C(=O)N1CCCC[C@H]1C(=O)N[C@@H](CCCNC(=N)N)C(N)=O [hit 6-3] ({Biotin-PEG4}-[Dab][Cha][Pip]V[hArg][Pip]R-NH2)
